Experimental data from patent US8287893B2, “Bioactive agrichemical compositions and use thereof” (Sciessent LLC, priority 2007, dated 2012).
Like-named read-outs stand apart in the source and are kept apart here.

How the values were obtained:
[1] = test system: Saccharomycetes Cerevisiae (Fleishmann's Bakers yeast); test: Yeast growth suppression, turbidity of yeast suspension in growth medium; format: cell-based; set-up: key to turbidity T0 / turbidity T18 / change in turbidity T48 − T0 / turbidity T48 / turbidity T72 / turbidity T96 / change in turbidity T18 − T0 / change in turbidity T72 − T0 / change in turbidity T96 − T0: turbidity in NTU
Method: Saccharomycetes Cerevisiae was selected as a test organism as it is generally accepted in the industry as an indicator or surrogate organism for a wide variety of fungi. In each of these experiments, the same general procedure was followed unless otherwise indicated.
Experimental Detail: A growth medium was prepared by adding 10 grams of nutrient medium (Difco Sabouraud dextrose broth from BD of Franklin Lakes, N.J., USA) to 300 ml of distilled water. Fleishmann's Bakers yeast was then added to the growth medium while mixing using a magnetic stirrer until a uniform dispersion was obtained having an initial turbidity of between about 50 and 100 NTU as measured using a HF Instruments DRT 100B Turbidity Meter. Once the appropriate dispersion was obtained, 20 ml aliquots were then dispensed, with continued mixing, into 40 ml borosilicate glass vials with Teflon lined caps (VWR International Cat. No. 15900-004). The system/component to be evaluated was then added to the vial and intimately shaken to ensure a good, substantially homogeneous mixture. The turbidity of each mixture was then determined and the vial transferred to an incubator at 30° C. Each vial was periodically removed from the incubator and the mixture in the vials assessed for turbidity: the specific timing for such evaluation was as set forth in the discussion of the experiments and the accompanying tables.
In each experiment, unless otherwise specified, a 2 ml aqueous solution containing the specified bioactive system or component thereof was added to the 20 ml yeast suspension and mixed thoroughly. Typically the surfactants were added separately in a concentrated solution in water; however, the volume added was negligible: a fraction of an ml. For convenience in understanding efficacy levels, the amounts or concentrations of the various components presented in each of the following tables and experiments are of the diluted material in the test vial: not of the concentrate added to the test vial. Furthermore, the concentrations presented are on the basis of a 20 ml total volume, not the actual 22+ ml volume. Multiplying each of the listed concentrations by 0.9 (or 0.95 with those compositions using 1 ml aqueous solutions) will provide a more accurate assessment of the concentrations of the various components evaluated, i.e., a 5 ppm silver concentration is actually closer to 4.5 ppm. Finally, for those vials to which no bioactive system or component thereof was added (the controls) or which only contained the surfactants, 2 ml of additional growth medium was added to ensure relative equivalent dilutions of the yeast.
In the tables below, the results are presented as the actual turbidity readings (NTU) with a sub-table presenting the change or delta in NTU values. Given the nature of the system, changes in turbidity are reflective of the relative performance/bioefficacy of the bioactive systems and their components.

E. amylovora 153N = test: Fire blight on Snow Drift crabapple trees (Example 287); format: in vivo; conditions: for cankers, result in words / shoot blight incidence, result in words: day 63
Method: A study of the bioefficacy of the various agrichemical compositions, including bioactive acid solutions and blends thereof with an antibiotic agrichemical, were evaluated to assess their bioefficacy against fire blight on crabapples. The study was conducted on 5 year old Snow Drift crabapple trees, with each of the compositions being applied to ten trees in two-subplots of five trees, four different times: at 100% bloom-day 1, a second application was made on day 4, a third on day 11 and a final treatment on day 19. The trees were inoculated with E. amylovora […] at a concentration of 4×10^6 cells per milliliter on day 1, following drying of the treatment, with the inoculation being repeated on day 13. Evaluation for fire blight was completed on 100 blossoms for each of the subplots on day 12, day 19 and day 27. Additionally, the incidence of shoot infection and the length of […] evaluated on day 63. The test compositions were prepared by forming solutions of the bioactive agents. Two different dilutions of the MI2 bioactive were evaluated; the first employing 94.46 ml/gallon (25 ml/l) of water (5 ppm of each metal) and the second 188.9 ml/gallon (50 ml/l) of water (10 ppm of each metal). […] Finally, copper hydroxide was diluted at a rate of 1 lb/gallon (119.8 g/l). Each of the compositions and blends were spray applied at a rate of 50 gallons (189.3 l) pre acre. The results are presented as the mean of the counts.

[2] = Table 12, surfactant ~0.05 wt % neat, Metal ppm 0
[3] = Table 12, surfactants ~0.05 wt %, Metal ppm 2.5 each of Cu, Ag, Zn, ~0.2% citric acid
[4] = Table 12, surfactants ~0.05 wt %, Metal ppm 5 each of Cu, Ag, Zn, ~0.4% citric acid

Compound: O=C([O-])CC(O)(CC(=O)[O-])C(=O)[O-].O=C([O-])CC(O)(CC(=O)[O-])C(=O)[O-].[Zn+2].[Zn+2].[Zn+2] [Example 7, zinc citrate]
- Change in Turbidity from T0 (delta NTU) T 96 Hours [1]: 1007.2 NTU
- Change in Turbidity from T0 (delta NTU) T 18 hours [1]: 948.2 NTU
- Change in Turbidity from T0 (delta NTU) T 24 hours [1]: 949.2 NTU
- Change in Turbidity from T0 (delta NTU) Time 1 Hr [1]: 20.7 NTU

Compound: CCCCCCCCCCCCOS(=O)(=O)[O-].[Na+]
- change in turbidity T48 − T0 [1, 2]: 610
- turbidity T0 [1, 2]: 48
- turbidity T18 [1, 2]: 495
- change in turbidity T18 − T0 [1, 3]: 2
- change in turbidity T48 − T0 [1, 3]: 0
- change in turbidity T72 − T0 [1, 3]: 0
- change in turbidity T96 − T0 [1, 3]: −1
- turbidity T0 [1, 3]: 88
- turbidity T18 [1, 3]: 90
- turbidity T48 [1, 3]: 88
- turbidity T72 [1, 3]: 88
- turbidity T96 [1, 3]: 87
- change in turbidity T18 − T0 [1, 4]: 13
- change in turbidity T48 − T0 [1, 4]: 2
- change in turbidity T72 − T0 [1, 4]: 7
- change in turbidity T96 − T0 [1, 4]: 1

Compound: [Cu+2].[OH-].[OH-] [copper hydroxide]
- Shoot Incidence (E. amylovora 153N; Day 63, rate 5 lbs/a (2.27 kg/a), mean of the counts): 1.0
- cankers, result in words (E. amylovora 153N): appeared to prevent canker
- shoot blight incidence, result in words (E. amylovora 153N): greatly reduced

Compound: [H]/N=C(/N)N[C@H]1[C@H](O)[C@@H](O)[C@H](O[C@@H]2O[C@@H](C)[C@](O)(C=O)[C@H]2O[C@@H]2O[C@@H](CO)[C@H](O)[C@@H](O)[C@@H]2NC)[C@@H](N/C(N)=N\[H])[C@@H]1O [streptomycin]
- cankers, result in words (E. amylovora 153N): appeared to prevent canker
- shoot blight incidence, result in words (E. amylovora 153N): greatly reduced

Compound: copper citrate [Example 13]
- Change in Turbidity from T0 (delta NTU) T 96 Hours [1]: 1054.4 NTU
- Change in Turbidity from T0 (delta NTU) T 18 hours [1]: 894.4 NTU
- Change in Turbidity from T0 (delta NTU) T 24 hours [1]: 975.4 NTU
- Change in Turbidity from T0 (delta NTU) Time 1 Hr [1]: 22.4 NTU

Compound: O=C([O-])CC(O)(CC(=O)[O-])C(=O)[O-].[Ag+].[Ag+].[Ag+] [Example 1, silver citrate]
- Change in Turbidity from T0 (delta NTU) Time 1 Hr ([1]; Table 1A, 1 hour): 15.1 NTU
- Change in Turbidity from T0 (delta NTU) T 18 hours ([1]; Table 1A, 18 hours): 845.5 NTU
- Change in Turbidity from T0 (delta NTU) T 24 hours ([1]; Table 1A, 24 hours): 887.5 NTU
- Change in Turbidity from T0 (delta NTU) T 96 Hours ([1]; Table 1A, 96 hours): 950.5 NTU
